# Results reported in patent publication US5006515A, “Pharmaceuticals, phosphorus-containing 2-isoxazolines and isoxazoles contained therein” (Hoechst Aktiengesellschaft, priority 1987, dated 1991).
# Test system: active Arthus reaction
# Test: Active Arthus reaction in the rat
# Type: in vivo, Sprague-Dawley rats
# Conditions: Rattus norvegicus, po, 4 h, oral dose 12 mg/kg, 4 h after ovalbumin challenge
# Method: The experimental animals used were female and male Sprague-Dawley rats with a body weight between 80 and 100 g which received subcutaneous injections into the tail-head of 0.5 ml of an emulsion of pertussis vaccine and ovalbumin in liquid paraffin. After two weeks, the rats were divided into groups each of 8 animals. 24 hours and 1 hour before induction of the Arthus reaction by injection of 0.1 ml of a 0.4% strength ovalbumin solution into the right hind paw, the particular test substance or the pure vehicle (positive control) was administered orally, sodium chloride solution was injected into the left paw. One group of unsensitized animals (negative control group) was likewise treated with ovalbumin in order to be able to rule out nonspecific reactions to the protein. The parameter used for measuring the action of the product was the percentage change in the increase in paw volume compared with that in the control group which was sensitized but untreated (positive control) 4 hours after ovalbumin challenge, when the swelling had reached its maximum.
row,SMILES,change in vivo at 12 mg/kg
1,"CP(=O)(NCC(=O)OCc1ccccc1)C1CC(c2ccccc2)=NO1 (stereo not drawn) [57/58, N-[3-Phenyl-2-isoxazolin-5-yl(P-methyl)phosphinoyl]glycine benzyl ester]",22%

# Same assay, conditions: Rattus norvegicus, po, 4 h, oral dose 25 mg/kg, 4 h after ovalbumin challenge; read-out: Active Arthus reaction % change
row,SMILES,change in vivo at 25 mg/kg
1,O=P(O)(O)c1cc(-c2ccccn2)no1 [Example 50],-18%

# Same assay, conditions: Rattus norvegicus, po, 4 h, oral dose 35 mg/kg, 4 h after ovalbumin challenge; read-out: Active Arthus reaction % change
row,SMILES,change in vivo at 35 mg/kg
1,"CP(C)(=O)C1CC(c2ccccc2)=NO1 (stereo not drawn) [Example 17, 3-Phenyl-2-isoxazolin-5-yldimethylphosphine oxide]",-34%
2,O=P(O)(O)C1CC(c2ccccn2)=NO1 (stereo not drawn) [Example 42],-33%
3,"O=P(O)(O)C1CC(c2ccccc2O)=NO1 (stereo not drawn) [Example 73, 3-(2-Hydroxyphenyl)-2-isoxazolin-5-ylphosphonic acid]",-44%
4,O=C(O)c1ccc(C2=NOC(P(=O)(O)O)C2)cc1 (stereo not drawn) [Example 87],-29%
5,CP(C)(=O)C1CC(c2ccccn2)=NO1 (stereo not drawn) [Example 105],-23%

# Same assay, conditions: Rattus norvegicus, po, 4 h, oral dose 50 mg/kg, 4 h after ovalbumin challenge
row,SMILES,change in vivo at 50 mg/kg
1,CP(=O)(O)C1CC(Cc2ccccc2)=NO1 (stereo not drawn) [Example 31],66%
2,CP(=O)(O)C1CC(c2cccc3ccccc23)=NO1 (stereo not drawn) [Example 32],42%
3,O=P(O)(O)CC1CC(c2ccccc2)=NO1 (stereo not drawn) [Example 39],24%
4,O=P(O)(O)C1CC(c2ccc(Cl)cc2)=NO1 (stereo not drawn) [Example 40],-23%
5,O=P(O)(O)C1CC(c2ccncc2)=NO1 (stereo not drawn) [Example 43],-14%
6,O=P(O)(O)C1CC(c2cccc3ccccc23)=NO1 (stereo not drawn) [Example 45],-25%
7,O=P(O)(O)c1cc(-c2ccccc2)no1 [Example 46],-36%
8,O=P(O)(O)C1CC(Cc2ccccc2)=NO1 (stereo not drawn) [Example 49],-59%
9,O=P(O)(O)c1cc(-c2ccncc2)no1 [Example 51],17%
10,O=P(O)(O)C1CC(C=Cc2ccccc2)=NO1 (stereo not drawn) [Example 52],-15%
11,"CN(C)P(=O)(C1CC(c2ccccc2)=NO1)N(C)C (stereo not drawn) [Example 59, 3-Phenyl-2-isoxazolin-5-ylphosphonic tetra methyldiamide]",-25%
12,"O=P(O)(O)C1CC(c2ccc(F)cc2)=NO1 (stereo not drawn) [Example 67, 3-(4-Fluorophenyl)-2-isoxazolin-5-ylphosphonic acid]",-35%
13,O=P(O)(O)C1CC(c2cccnc2)=NO1 (stereo not drawn) [Example 88],-50%

# Same assay, conditions: Rattus norvegicus, po, 4 h, oral dose 100 mg/kg, 4 h after ovalbumin challenge; read-out: Active Arthus reaction % change
row,SMILES,change in vivo at 100 mg/kg
1,O=P(O)(O)CC1CC(c2ccc(Cl)cc2)=NO1 (stereo not drawn) [Example 41],26%

# Same assay, conditions: Rattus norvegicus, po, 4 h, read-out: Active Arthus reaction % change
SMILES,change in vivo at 100 mg/kg,change in vivo at 25 mg/kg,change in vivo at 20 mg/kg,change in vivo at 35 mg/kg,change in vivo at 70 mg/kg
"CC(C)(C)C1=NOC(P(=O)(O)O)C1 (stereo not drawn) [Example 33, 3-tert.butyl-2-isoxazolin-5-ylphosphonic acid]",-15%,,,,
CCCC1=NOC(P(=O)(O)O)C1 (stereo not drawn) [Example 47],,-35%,,,
"CC(C)(C)C1=NOC(P(C)(=O)O)C1 (stereo not drawn) [Example 64, 3-tert.Butyl-2-isoxazolin-5-yl(P-methyl)phosphinic acid]",,,-59%,,
"CC(C)(C)c1cc(P(=O)(O)O)on1 [Example 77, Diammonium 3-tert.butyl-5-isoxazolylphosphonate]",,,,-20%,
"CP(=O)(O)CC1CC(Cl)=NO1 (stereo not drawn) [Example 79, 3-Chloro-2-isoxazolin-5-ylmethyl(P-methyl)phosphinic acid]",,,,,-24%
CC(C)(C)C1=NOC(CP(C)(=O)O)C1 (stereo not drawn) [Example 99],,,,-32%,
CCOC(=O)C1=NOC(P(C)(=O)O)C1 (stereo not drawn) [Example 101],,,,,-32%
CP(=O)(O)C1CC(C(=O)O)=NO1 (stereo not drawn) [Example 102],,,,-35%,

# Same assay, conditions: Rattus norvegicus; oral dose 25 mg/kg, 4 h after ovalbumin challenge; read-out: Active Arthus reaction % change
row,SMILES,change in vivo at 25 mg/kg
1,"CCOP(=O)(O)C1CC(c2ccc(OC)cc2)=NO1 (stereo not drawn) [Example 28, Monoethyl ammonium 3-(4-methoxyphenyl)-2-isoxazolin-5-ylphosphonate]",-12%

# Same assay, conditions: Rattus norvegicus; oral dose 50 mg/kg, 4 h after ovalbumin challenge
row,SMILES,change in vivo at 50 mg/kg
1,"COC(=O)c1ccc(C2=NOC(P(=O)(OC)OC)C2)cc1 (stereo not drawn) [Example 66, Dimethyl 3-(4-methoxycarbonylphenyl)-2-isoxazolin-5-ylphosphonate]",-28%

# Same assay, conditions: Rattus norvegicus; oral dose 70 mg/kg, 4 h after ovalbumin challenge; read-out: Active Arthus reaction % change
row,SMILES,change in vivo at 70 mg/kg
1,"CCOP(=O)(O)C1CC(c2ccccc2)=NO1 (stereo not drawn) [Example 27, Monoethyl 3-phenyl-2-isoxazolin-5-ylphosphonate]",108%
2,"CCOP(=O)(C1CC(c2ccccc2)=NO1)N1CCCC1 (stereo not drawn) [Example 55, 3-Phenyl-2-isoxazolin-5-yl(P-ethoxy)phosphonic acid pyrrolidide]",-23%

# Same assay, conditions: Rattus norvegicus; oral dose 100 mg/kg, 4 h after ovalbumin challenge; read-out: Active Arthus reaction % change
row,SMILES,change in vivo at 100 mg/kg
1,"CCOP(=O)(NCC(=O)OCc1ccccc1)C1CC(c2ccccc2)=NO1 (stereo not drawn) [Example 56, N-[3-Phenyl-2-isoxazolin-5-yl(P-ethoxy)phosphonoyl]glycine benzyl ester]",35%

# Same assay, conditions: oral dose 50 mg/kg, 4 h after ovalbumin challenge
row,SMILES,Active Arthus reaction % change
1,COP(=O)(OC)C1CC(C(C)(C)O)=NO1 (stereo not drawn) [Example 90],-31%

# Same assay, conditions: oral dose 100 mg/kg, 4 h after ovalbumin challenge
row,SMILES,Active Arthus reaction % change
1,"COP(=O)(OC)C1CC(c2ccccc2)=NO1 (racemic) [Example 5, Dimethyl 3-phenyl-2-isoxazolin-5-ylphosphonate]",-20%

# Test system: not listed separately
# Test: Acute toxicity
# Parameters: species or system mice
# Conditions: mouse, in vivo, ip, single dose, mortality within 7 days
# Method: The LD50 values were determined by the standard method via the mortality occurring within 7 days in NMRI (Naval Medical Research Institute) mice (6 animals per dose) after a single intraperitoneal (i.p.) or intravenous (i.v.) dose.
row,SMILES,LD50 at 168 h
1,"COP(=O)(OC)C1CC(c2ccccc2)=NO1 (racemic) [Example 5, Dimethyl 3-phenyl-2-isoxazolin-5-ylphosphonate]",300 to 600 mg/kg
2,CP(=O)(O)C1CC(c2cccc3ccccc23)=NO1 (stereo not drawn) [Example 32],600 to 1200 mg/kg
3,O=P(O)(O)CC1CC(c2ccccc2)=NO1 (stereo not drawn) [Example 39],600 to 1200 mg/kg
4,O=P(O)(O)CC1CC(c2ccc(Cl)cc2)=NO1 (stereo not drawn) [Example 41],150 to 300 mg/kg
5,O=P(O)(O)C1CC(c2cccc3ccccc23)=NO1 (stereo not drawn) [Example 45],75 to 150 mg/kg
6,"CCOP(=O)(NCC(=O)OCc1ccccc1)C1CC(c2ccccc2)=NO1 (stereo not drawn) [Example 56, N-[3-Phenyl-2-isoxazolin-5-yl(P-ethoxy)phosphonoyl]glycine benzyl ester]",> 1200 mg/kg
7,COP(=O)(OC)C1CC(c2ccc(F)cc2)=NO1 (stereo not drawn) [Example 65],> 300 mg/kg
8,"O=P(O)(O)C1CC(c2ccccc2O)=NO1 (stereo not drawn) [Example 73, 3-(2-Hydroxyphenyl)-2-isoxazolin-5-ylphosphonic acid]",150 to 300 mg/kg

# Same assay, conditions: mouse, in vivo, iv, single dose, mortality within 7 days
row,SMILES,LD50 at 168 h
1,"CP(=O)(NCC(=O)OCc1ccccc1)C1CC(c2ccccc2)=NO1 (stereo not drawn) [57/58, N-[3-Phenyl-2-isoxazolin-5-yl(P-methyl)phosphinoyl]glycine benzyl ester]",50 to 100 mg/kg
2,"CP(C)(=O)C1CC(c2ccccc2)=NO1 (stereo not drawn) [Example 17, 3-Phenyl-2-isoxazolin-5-yldimethylphosphine oxide]",> 200 mg/kg
3,"CCOP(=O)(O)C1CC(c2ccccc2)=NO1 (stereo not drawn) [Example 27, Monoethyl 3-phenyl-2-isoxazolin-5-ylphosphonate]",> 200 mg/kg
4,"CCOP(=O)(O)C1CC(c2ccc(OC)cc2)=NO1 (stereo not drawn) [Example 28, Monoethyl ammonium 3-(4-methoxyphenyl)-2-isoxazolin-5-ylphosphonate]",> 200 mg/kg
5,CP(=O)(O)C1CC(Cc2ccccc2)=NO1 (stereo not drawn) [Example 31],> 200 mg/kg
6,"CC(C)(C)C1=NOC(P(=O)(O)O)C1 (stereo not drawn) [Example 33, 3-tert.butyl-2-isoxazolin-5-ylphosphonic acid]",> 200 mg/kg
7,O=P(O)(O)C1CC(c2ccc(Cl)cc2)=NO1 (stereo not drawn) [Example 40],> 200 mg/kg
8,O=P(O)(O)C1CC(c2ccccn2)=NO1 (stereo not drawn) [Example 42],> 200 mg/kg
9,O=P(O)(O)C1CC(c2ccncc2)=NO1 (stereo not drawn) [Example 43],> 200 mg/kg
10,O=P(O)(O)c1cc(-c2ccccc2)no1 [Example 46],> 200 mg/kg
11,CCCC1=NOC(P(=O)(O)O)C1 (stereo not drawn) [Example 47],> 200 mg/kg
12,O=P(O)(O)C1CC(Cc2ccccc2)=NO1 (stereo not drawn) [Example 49],> 200 mg/kg
13,O=P(O)(O)c1cc(-c2ccccn2)no1 [Example 50],> 200 mg/kg
14,O=P(O)(O)c1cc(-c2ccncc2)no1 [Example 51],> 200 mg/kg
15,"CCOP(=O)(C1CC(c2ccccc2)=NO1)N1CCCC1 (stereo not drawn) [Example 55, 3-Phenyl-2-isoxazolin-5-yl(P-ethoxy)phosphonic acid pyrrolidide]",> 200 mg/kg
16,"CN(C)P(=O)(C1CC(c2ccccc2)=NO1)N(C)C (stereo not drawn) [Example 59, 3-Phenyl-2-isoxazolin-5-ylphosphonic tetra methyldiamide]",> 200 mg/kg
17,"CC(C)(C)C1=NOC(P(C)(=O)O)C1 (stereo not drawn) [Example 64, 3-tert.Butyl-2-isoxazolin-5-yl(P-methyl)phosphinic acid]",> 200 mg/kg
18,CC(C)(C)C1=NOC(CP(C)(=O)O)C1 (stereo not drawn) [Example 99],> 100 mg/kg
19,CCOC(=O)C1=NOC(P(C)(=O)O)C1 (stereo not drawn) [Example 101],> 100 mg/kg
20,CP(C)(=O)C1CC(c2ccccn2)=NO1 (stereo not drawn) [Example 105],> 100 mg/kg

# Molecular target: leucine aminopeptidase
# Test: Inhibition of leucine aminopeptidase
# Type: biochemical
# Conditions: substrate L-leucine 4-nitroanilide
# Method: The activity of the enzyme aminopeptidase B was determined photometrically using the substrate L-lysine 2-naphthylamide at room temperature. […] In the same way, the inhibition of leucine aminopeptidase was investigated using L-leucine 4-nitroanilide as enzyme substrate. The IC50 values are compiled in Table 6.
row,SMILES,Leucine aminopeptidase IC50
1,"CCOP(=O)(OCC)C1CC(c2ccccc2)=NO1 (stereo not drawn) [Example 1, Diethyl 3-phenyl-2-isoxazolin-5-ylphosphonate]",65 μug/ml
2,O=P(O)(O)C1CC(c2cccc3ccccc23)=NO1 (stereo not drawn) [Example 45],92 μug/ml
3,CCCC1=NOC(P(=O)(O)O)C1 (stereo not drawn) [Example 47],35 μug/ml
4,"O=P(O)(O)C1CC(c2ccc(F)cc2)=NO1 (stereo not drawn) [Example 67, 3-(4-Fluorophenyl)-2-isoxazolin-5-ylphosphonic acid]",57 μug/ml

# Test system: DTH reaction to sheep erythrocytes
# Test: Delayed-type hypersensitivity (DTH) reaction to sheep erythrocytes
# Type: in vivo, female NMRI mice
# Conditions: single i.p. dose of 40 mg/kg; maximal stimulation by Example 34 = 100%
# Method: Groups each comprising 5 female NMRI mice with a body weight of 18 to 20 g were formed, and each animal was given 10^6 or 10^9 sheep red blood cells intravenously. Sheep erythrocytes are regarded in immunology as a standard antigen with which it is possible to check cellular and humoral immunoreactivity, especially the functioning of the T-cell-dependent component of the immune system, the so-called T-helper cells. The test substances were administered, in intraperitoneal doses of 5 to 100 mg/kg in physiological saline, at the same time as the antigen. After 5 days, each animal was given an injection of 2×10^8 sheep erythrocytes into the footpad. 24 hours later, the swelling of the foot was measured. The foot swelling is induced by a skin reaction of the delayed type (DTH reaction) and, as is known to those skilled in the art, is a measure of the cellular immune response (J. Immunol. 101 (1968), 830-845). The test results obtained with the product of Example 34, by way of example, are compiled in Table 7 and illustrate that the compounds of the formula I--administered prophylactically--are able to increase the cellular immune response after immunization with the antigen by stimulation of the T-cell system, with the stimulant action reaching its optimum in this experiment at a dose of 25 mg/kg.
row,SMILES,Relative stimulation of the DTH reaction
1,"CCOP(=O)(O)C1CC(c2ccccc2)=NO1 (stereo not drawn) [Example 27, Monoethyl 3-phenyl-2-isoxazolin-5-ylphosphonate]",94%
2,Cc1ccc(C2=NOC(P(C)(=O)O)C2)cc1 (stereo not drawn) [Example 30],76%
3,O=P(O)(O)CC1CC(c2ccccc2)=NO1 (stereo not drawn) [Example 39],136%

# Test system: peritoneal macrophages
# Test: Stimulation of the release of lysosomal enzymes from peritoneal macrophages (exocytosis)
# Conditions: single i.p. dose of 40 mg/kg; maximum activation by Example 34 = 100%
row,SMILES,Relative stimulation of macrophage activity: Exocytosis
1,"COP(=O)(OC)C1CC(c2ccccc2)=NO1 (racemic) [Example 5, Dimethyl 3-phenyl-2-isoxazolin-5-ylphosphonate]",54%
